Where “and” joins values, the source holds several entries; their conditions need not be identical. Equal entries are not always repeated.
Key:
[1] = cell cytotoxicity assay (MTT); assay type: cell-based; conditions: human, 50% cytotoxicity concentration, Huh7 (NS3-5B) cells
Method: To determine if the compounds were cytotoxic to Huh7 (NS3-5B) cells, the cells (1 × 10^4 cells per well) were plated on 96-well microtiter plates and were incubated at 37 °C in 5% CO2 overnight. Various concentrations of the compounds were added to the wells. 48 h later, 10 μL of MTT (M2128, Sigma, Shanghai, China) were added to each well and incubated at 37 °C for 4 h. One-hundred microliters of MTT buffer (10% SDS + 5% isobutyl alcohol + 10 mmol/L HCl) were added overnight, and the optical density readings were measured by colorimeter at 580 and 680 nm.

[2] = system: HCV replicon, Huh7 (NS3-5B) cells; assay: cell-based HCV replicon assay (luciferase); parameters: species or system Hepatitis C virus genotype 1b; conditions: for IC50: genotype 1b, Huh7 (NS3-5B) cells, 48 h incubation, luciferase readout; for SI (selectivity index): ratio of CC50/IC50
Method: Huh7 (NS3-5B) cells correspond to a stable cell line transfected with HCV NS3-5B genotype 1b. The cells were seeded (1 × 10^4 cells per well) in Dulbecco’s Modified Eagle Medium (DMEM) supplemented with 10% fetal bovine serum, 2 mM glutamine, penicillin (100 IU/mL)/streptomycin (100 μg/mL), 1× nonessential amino acids and 0.5 mg/mL G418 in 96-well plates overnight. Compounds were diluted and added to each well. Each concentration was measured in duplicate. After 48 h of incubation, 100 μL of Steady-Glo Luciferase buffer (E2550, Promega, Beijing, China) was added to each well and shaken for 10 min, and the results were read on plate reader (ENVISION, PerkinElmer, Shanghai, China). The IC50 values were calculated by fitting with the parameter of the Hill equation.

[3] = parameters: method as in SPECS; conditions: values provided by vendor; ref SPECS; cited from earlier work
[4] = parameters: method as in SPECS; conditions: values provided by vendor; ref SPECS; cited from earlier work; remark: listed apart in the source
[5] = biological target: T1, HCV NS3/4A protease (Hepatitis C virus genotype 1b, UniProt O92972); assay: HCV NS3/4A protease assay (SensoLyte 490 kit); conditions: inhibition percentage at 50 μM in biochemical protease assay, mean of duplicate wells
T1 construct: HCV NS3/4A protease diluent (10 ng, 10 μL); purchased AnaSpec 71126 (assay kit)
Method: A SensoLyte® 490 HCV Protease Assay Kit (AnaSpec, Cat#71126) was used for screening HCV protease inhibitors. The test compounds (100 nL of 200× final concentration, prepared by the ECHO liquid handler (ECHO, Labcyte, CA, USA)) and HCV NS3/4A protease diluent (10 ng, 10 μL) were added into a 384-well black microplate (Corning #3573). The known HCV NS3/4A protease inhibitor (Ac-DEDif-EchaC, AnaSpec Cat#25346) was used as a control. The plate was incubated at room temperature for enzymatic reaction for 10 min. In the meantime, the HCV NS3/4A protease substrate solution was also incubated at the same temperature. The reaction was initiated by adding 10 μL of HCV NS3/4A protease substrate. The reagents were completely mixed by shaking the plate gently for 30–60 s. For the kinetic reading, the fluorescence intensity at Ex/Em = 340 nm/490 nm was immediately measured, and the data was recorded every 2 min for 30 min.

T1 sequence (O92972 1658-1711): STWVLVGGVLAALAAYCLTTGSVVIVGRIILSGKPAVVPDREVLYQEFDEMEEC
T1 sequence (O92972 1027-1657): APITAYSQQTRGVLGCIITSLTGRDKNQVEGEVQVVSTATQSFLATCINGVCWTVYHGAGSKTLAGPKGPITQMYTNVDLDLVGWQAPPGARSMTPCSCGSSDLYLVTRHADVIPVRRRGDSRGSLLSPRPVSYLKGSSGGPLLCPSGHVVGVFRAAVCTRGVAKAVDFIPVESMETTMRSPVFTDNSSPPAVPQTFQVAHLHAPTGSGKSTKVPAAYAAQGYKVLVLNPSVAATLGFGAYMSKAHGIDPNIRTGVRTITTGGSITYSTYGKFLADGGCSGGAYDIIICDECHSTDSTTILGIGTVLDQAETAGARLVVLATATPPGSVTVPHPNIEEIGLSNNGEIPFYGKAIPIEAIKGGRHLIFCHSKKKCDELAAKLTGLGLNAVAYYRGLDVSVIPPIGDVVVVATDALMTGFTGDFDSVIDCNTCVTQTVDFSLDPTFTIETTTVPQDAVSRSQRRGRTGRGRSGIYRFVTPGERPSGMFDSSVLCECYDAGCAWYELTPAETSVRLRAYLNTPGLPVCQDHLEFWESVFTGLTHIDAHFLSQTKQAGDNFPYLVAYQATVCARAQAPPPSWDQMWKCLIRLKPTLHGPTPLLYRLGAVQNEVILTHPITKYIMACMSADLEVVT

| SMILES | CC50 at 48 h [1] [µM] | IC50 ([2]; Hepatitis C virus, Huh-7, 48 h) [µM] | SI (selectivity index) [2] | LogP [3] | LogS [4] | inhibition at 50 µM [5] [%] | IC50 [2] |
| --- | --- | --- | --- | --- | --- | --- | --- |
| O=C1c2ccccc2C(=O)N1/N=C/c1cccc(O)c1O [Compound 10] | > 50 | 7.07 | >7.07 | 2.18 | −2.5 |  |  |
| Cc1ccc(O)c(/C=N/NC(=O)C2C(=O)NCC2c2ccccc2)c1 (stereo not shown) [Compound 3] | > 50 | 13.4 | >3.73 | 2.75 | −3.69 |  |  |
| O=C(NC(C(=O)N/N=C/c1ccc(O)cc1O)c1n[nH]c(=O)c2ccccc12)c1ccccc1 (stereo not shown) [Compound 2] | > 50 | 11.2 | >4.46 | 1.95 | −3.90 | 77.9 |  |
| COc1ccc(-c2cc(C(=O)Nc3ccc(S(=O)(=O)Nc4nccs4)cc3)c3ccccc3n2)c(OC)c1 [Compound 14] | > 50 | 20.7 | >2.42 | 5.1 | −7.55 |  |  |
| O=C(N/N=C/c1ccc(O)cc1O)c1[nH]nc2c1CCCC2 [Compound 1] | 0.46 | 4.69 | 0.10 | 0.27 | −3.01 | 96.7 |  |
| COc1cccc(/C=N/NC(=O)c2cc3ccccc3nc2C)c1O [Compound 5] | > 50 | 3 |  | 3.17 | −4.05 |  | 3.01 µM |
| NC(=S)N/N=C/c1cccc(O)c1O [Compound 8] | 1.12 | 6.23 | 0.18 | 1.51 | −1.89 |  |  |
| CCC(C)c1ccc(-c2cc(C(=O)N/N=C/c3cccnc3)c3ccccc3n2)cc1 (stereo not shown) [Compound 7] | 11.8 | 4.14 | 2.85 | 5.84 | −5.53 | 64.3 |  |
| C=CCc1cccc(/C=N/c2ccc(OC)cc2)c1O [Compound 11] | > 50 | < 10 |  | 4.43 | −4.16 |  | 5.1 µM and 5.14 µM |
| NC(=S)N/N=C/c1ccc(O)c(O)c1 [Compound 9] |  |  |  | 1.53 | −1.03 | 33.7 |  |
| COc1ccc(/C=N/NC(=O)c2ccc(O)cc2O)cc1O [Compound 4] | > 50 | 15.3 | >3.27 | 2.2 | −2.48 | 56.9 |  |
| O=C(COC(=O)c1cccc(N2C(=O)C3C4c5ccccc5C(c5ccccc54)C3C2=O)c1)c1ccc(Br)cc1 (stereo not shown) [Compound 16] | > 50 | 9.42 | >5.31 | 4.48 | −8.04 |  |  |
| CCCCC(CC)C(=O)Nc1nnc(Cc2ccc(OC)cc2)s1 (stereo not shown) [Compound 15] | > 50 | 28.2 | >1.77 | 4.57 | −5.64 | 41.8 |  |
| Oc1ccc2cc(Br)ccc2c1/C=N/c1nc[nH]n1 [Compound 12] | > 50 | 16.1 | >3.11 | 3.23 | −2.67 | 53 |  |
| O=C(CSc1nnc(CNc2ccccc2)n1-c1ccc(Cl)cc1Cl)N/N=C/c1c2ccccc2cc2ccccc12 [Compound 6] | 14.8 | 5.04 | 2.94 | 7.08 |  | 48.1 |  |
